The source of these data is PubChem BioAssay (NCI).

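Tested at 5 concentrations; 48 h exposure; 96-well plates; endpoints linearly interpolated, else capped at highest concentration. GI50 is the concentration that inhibits growth by half. TGI is the concentration that stops growth completely.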

As usually defined, the GI50 is the concentration at which growth is held to half of that of the control. The term TGI denotes the concentration at which net growth stops. The low end stands for more potent growth arrest, the high end for less potent growth arrest.

The test system of this experiment is MDA-MB-468 breast. The experiment can be described thus: DTP human tumour cell line panel, 48 h.

Consider `COc1ccc2c(c1)c(C1(c3cn(C)c4ccc(OC)cc34)C(=O)Nc3ccc(F)cc31)cn2C`, for which the GI50 was 3400 nM and the TGI worked out at 41.4 µM.
In the case of `CCCCC(=O)N/N=C/c1cc(I)cc(I)c1O`, the GI50 is 2850 nM and the TGI came to 18.4 µM.
On the same counts, the results for `CCC[C@H](N[C@@H]1CCc2cc(F)cc(F)c2C1)C(=O)Nc1cn(C(C)(C)CNCC(C)(C)C)cn1` are 3480 nM and 29.7 µM.
As for `Cn1c(COC(=O)N2CCCCC2)nc2c(N3CCOCC3)nc(-c3ccccc3)nc21`, the GI50 was 656 nM and the TGI is 2.19 µM.
On the same counts, the results for `ClCCN(CCCl)c1ccc(-n2cnc3c(Cl)ncnc32)cc1` are 1970 nM and 4.18 µM.
For `C#C[C@]1(O)CC[C@H]2[C@@H]3CC=C4c5sc(-c6ccc(F)cn6)nc5CC[C@]4(C)[C@H]3CC[C@@]21C` the same measures were 2990 nM and 13.7 µM.
In the case of `Brc1ccc([I+]c2ccc(Br)cc2)cc1`, the GI50 is 541 nM and the TGI turned out to be 3.52 µM.
For `O=C(COc1cccc(/C=C2\COc3ccccc3C2=O)c1)Nc1nccs1` the same measures were 1910 nM and 3.54 µM.
On the same counts, the results for `Nc1cc(-c2ccccc2)ccc1O` are 42300 nM and > 100 µM.
For `O=C(Nc1cc(C(F)(F)F)cc(C(F)(F)F)c1)Nc1ccc2oc(=O)ccc2c1` the same measures were 641 nM and 4.41 µM.
Consider `COc1ccc(-c2n[nH]nc2-c2csc3ccccc23)cc1OC`, for which the GI50 was 631 nM and the TGI is 10.7 µM.
Regarding `CCN(CC)c1ccc2c(c1)Oc1nc(N)c(C#N)c(N)c1C2Sc1ccc(SC)cc1` (stereo unspecified), the GI50 was 1940 nM and the TGI is 3.64 µM.
For `COc1cc(CSc2nc3ccc(C)cc3c(=O)n2Cc2ccccc2)cc(OC)c1OC` the same measures were 479 nM and 3.01 µM.
For `Oc1ccc(CSc2nnc(-c3ccccc3)o2)c2cccnc12` the same measures were 2210 nM and > 100 µM.
For `CC(C)(C)c1ccc([I+]c2ccc(C(C)(C)C)cc2)cc1` the same measures were 400 nM and 2.28 µM.
For `COc1cnc2c(c1)C(=O)c1c-2n(CCCn2ccnc2)c(=O)c2cc(Cl)ccc12`, the GI50 is 25.2 nM and the TGI worked out at 0.0855 µM.
Regarding `CS(=O)(=O)CCNCc1ccc(-c2ccc3ncnc(Nc4ccc(OCc5cccc(C(F)(F)F)c5)cc4)c3c2)o1`, the GI50 is 3390 nM and the TGI was 8.6 µM.
On the same counts, the results for `CN1CCN(c2ccc3nc(-c4cc(C(C)(C)C)c(O)c(C(C)(C)C)c4)[nH]c3c2)CC1` are 1920 nM and 3.76 µM.
On the same counts, the results for `CCCCCCCCCCCCCCCc1cc(O)ccc1N` are 2040 nM and 6.3 µM.
For `C(=C1c2ccccc2-c2ccccc21)c1ccccn1` the same measures were 2640 nM and 14.7 µM.
With `CN1C(=O)CNC(=O)[C@H](NC(=O)c2nc3ccccc3cc2O)CSSC[C@H]1C(=O)NCCc1nc2ccccc2cc1O`, the GI50 is 1320 nM and the TGI amounted to 11 µM.
On the same counts, the results for `Oc1ccccc1-c1nnc(SCc2ccc(O)c3ncccc23)n1-c1ccccc1` are 349 nM and 9.29 µM.
In the case of `COC(CCP(=O)(c1ccccc1)c1ccccc1)(C(=O)c1ccccc1)c1ccccc1` (stereo unspecified), the GI50 is 2050 nM and the TGI was determined as 11.7 µM.
On the same counts, the results for `CCCN(CCC)c1ccc(CO)c(C)c1` are 962 nM and 4.32 µM.
On the same counts, the results for `COc1ccc(O)c(C(=O)c2ccc(C(=O)O[C@@H]3CCCNC[C@H]3NC(=O)c3ccncc3)cc2)c1F` are 511 nM and > 23.7 µM.
On the same counts, the results for `O=C1OC(c2ccc(O)c(Cl)c2)(c2ccc(O)c(Cl)c2)c2ccc(Br)c3cccc1c23` (tested in a mixture with another compound) are 14600 nM and 34.1 µM.
With `CCC(Sc1nnc2c3ccccc3n(CC)c2n1)C(=O)Nc1ccccc1OC` (stereo unspecified), the GI50 is 1370 nM and the TGI worked out at 4.23 µM.
Turning to `COCCOC(=O)C1=C(C)NC2=C(C(=O)CC(c3ccccc3OC)C2)C1c1cccc(O)c1` (stereo unspecified), the GI50 was 3920 nM and the TGI worked out at 21.9 µM.
On the same counts, the results for `COc1ccc2[nH]cc(-c3nc(-c4cn(C)c5ccncc45)cs3)c2c1` are 1970 nM and 3.77 µM.
For `C#C[C@]1(O)CC[C@H]2[C@@H]3CC=C4c5sc(N=C(N)N)nc5CC[C@]4(C)[C@H]3CC[C@@]21C` the same measures were 741 nM and 2.2 µM.
On the same counts, the results for `CC1(C)N=C(N)N=C(N)N1c1ccc(F)c(C(F)(F)F)c1` are 1470 nM and > 100 µM.
In the case of `Cn1c(=O)cc2c3c(c(NCCCO)ccc31)C(=O)c1ccccc1-2`, the GI50 is 2110 nM and the TGI was found to be 9.66 µM.
On the same counts, the results for `COc1cccc(/C=N\Nc2ccc([N+](=O)[O-])cn2)c1O` are 2270 nM and 6.64 µM.
